Data as given in patent US5023269A, “3-aryloxy-3-substituted propanamines” (Eli Lilly and Company, priority 1990, dated 1991).
Counter-ions that a name gives are not always drawn.

Assays:
[1] = test system: norepinephrine (NE) uptake; experiment: Inhibition of norepinephrine uptake in vitro: synaptosomal uptake of 14C-l-norepinephrine in rat cortical synaptosomes; format: biochemical, rat (male Sprague-Dawley); conditions: 100 nM 14C-NE, 37° C., 5 min
Method: (§1) This general procedure is set forth by Wong et al., in Drug Development Research 6:397-403 (1985).
(§2) Male Sprague-Dawley rats (110-150 g) from Harlan Industries (Cumberland, IN) were fed a Purina Chow ad libitum for at least 3 days before being used in the studies. Rats were killed by decapitation. Whole brains were removed and dissected. Cerebral cortex was homogenized in 9 volumes of a medium containing 0.32 M sucrose and 10 mM glucose. Crude synaptosomal preparations were isolated after differential centrifugation at 1,000 g for 10 min. and 17,000 g for 28 min. The final pellets were suspended in the same medium and kept in ice until use within the same day.
(§3) Synaptosomal uptake of ^3 H-serotonin(^3 H-5hydroxytryptamine, ^3 H-5HT) and ^14 C-l-norepinephrine (^14 C-NE) was determined as follows. Cortical synaptosomes (equivalent to 1 mg of protein) were incubated at 37° C. for 5 min in 1 ml of Krebs-bicarbonate medium containing also 10 mM glucose, 0.1 mM iproniazid, 1 mM ascorbic acid, 0.17 mM EDTA, 50 nM ^3 H-5HT and 100 nM ^14 C-NE The reaction mixture was immediately diluted with 2 ml of ice-chilled Krebs-bicarbonate buffer and filtered under vacuum with a cell harvester (Brandel, Gaithersburg, MD). Filters were rinsed twice with approximately 5 ml of ice-chilled 0.9% saline and were transferred to a counting vial containing 10 ml of scintillation fluid (PCS, Amersham, Arlington Heights, IL). Radioactivity was measured by a liquid scintillation spectrophotometer. Accumulation of ^3 H-5HT and ^14 C-NE at 4° C. represented the background and was subtracted from all samples.

[2] = test system: serotonin (5HT) uptake; experiment: Inhibition of 5HT uptake in vitro: synaptosomal uptake of 3H-serotonin in rat cortical synaptosomes; format: biochemical, rat (male Sprague-Dawley); conditions: 50 nM 3H-5HT, 37° C., 5 min
Method: as §1, §2, §3

Row | SMILES | IC50 [1] [nM] | IC50 [2] [nM] | percent inhibition at 1000 nM, NE (number in parentheses) [1] [%] | also measured
1 | CNCCC(Oc1cccc2ccccc12)c1cccs1 (single isomer, unassigned; (-)) [Example 39, (-)-N-methyl-3-(1-naphthalenyloxy)-3-(2-thienyl)propanamine oxalate] |  |  |  | IC50 ([1]; oxalate): 34 nM; IC50 ([2]; oxalate): […]
2 | CN(C)CCC(Oc1cccc2ccccc12)c1cccs1 (stereo not drawn) [Example 1, N,N-Dimethyl-3-(1-naphthalenyloxy)-3-(2-thienyl)propanamine oxalate] | 600 | 13 |  | 
4 | Cc1ccc(C(CCN(C)C)Oc2cccc3ccccc23)s1 (stereo not drawn) [Example 3, N,N-Dimethyl-3-(1-naphthalenyloxy)-3-(5-methyl-2-thienyl)propanamine oxalate] | 720 | 55 |  | 
5 | Cc1ccsc1C(CCN(C)C)Oc1cccc2ccccc12 (stereo not drawn) [Example 4, N,N-Dimethyl-3-(1-naphthalenyloxy)-3-(3-methyl-2-thienyl)propanamine oxalate] |  | 76 | 41 | 
6 | CN(C)CCC(Oc1cccc2ccccc12)c1ccc(Cl)s1 (stereo not drawn) [Example 5, N,N-Dimethyl-3-(1-naphthalenyloxy)-3-(5-chloro-2-thienyl)propanamine oxalate] | 725 | 62 |  | 
7 | CN(C)CCC(Oc1ccc(C(F)(F)F)c2ccccc12)c1cccs1 (stereo not drawn) [Example 6, N,N-Dimethyl-3-[4-(trifluoromethyl)-1naphthalenyloxy]-3-(2-thienyl)propanamine oxalate] |  | 114 | 9 | 
8 | CNCCC(Oc1ccc(C(F)(F)F)c2ccccc12)c1cccs1 (stereo not drawn) [Example 7, N-Methyl-3-[4-(trifluoromethyl)-1-naphthalenyloxy]-3-(2-thienyl)propanamineoxalate] |  | 95 | 46 | 
9 | CN(C)CCC(Oc1cccc2ccccc12)c1ccsc1 (stereo not drawn) [Example 8, N,N-Dimethyl-3-(1-naphthalenyloxy)-3-(3-thienyl)propanamine oxalate] | 630 | 25 |  | 
10 | CNCCC(Oc1cccc2ccccc12)c1ccsc1 (stereo not drawn) [Example 9, N-Methyl-3-(1-naphthalenyloxy)-3-(3-thienyl)propanamine oxalate] | 69 | 18 |  | 
11 | CN(C)CCC(Oc1ccc(Cl)c2ccccc12)c1cccs1 (stereo not drawn) [Example 10, N,N-Dimethyl-3-(4-chloro-1-naphthalenyloxy)-3-(2-thienyl)propanamine oxalate] |  | 36 | 31 | 
12 | CNCCC(Oc1ccc(Cl)c2ccccc12)c1cccs1 (stereo not drawn) [Example 11, N-Methyl-3-(4-chloro-1-naphthalenyloxy)-3-(2-thienyl)propanamine oxalate] | 77 | 49 |  | 
13 | Cc1ccc(OC(CCN(C)C)c2cccs2)c2ccccc12 (stereo not drawn) [Example 12, N,N-Dimethyl-3-(4-methyl-1-naphthalenyloxy)-3-(2-thienyl)propanamine oxalate] |  | 58 | 40 | 
14 | CNCCC(Oc1cccc2ccccc12)C1CCCCC1 (stereo not drawn) [Example 15, N-Methyl-3-(1-naphthalenyloxy)-3-cyclohexylpropanamine oxalate] | 90 | 125 |  | 
15 | CNCCC(Oc1cccc2ccccc12)c1nccs1 (stereo not drawn) [Example 16, N-Methyl-3-(1-naphthalenyloxy)-3-(2-thiazolyl)propanamine oxalate] | 205 | 70 |  | 
16 | CN(C)CCC(Oc1ccc(C(F)(F)F)cc1)c1ccco1 (stereo not drawn) [Example 17, N,N-Dimethyl-3-[4-(trifluoromethyl)phenoxy]-3-(2-furanyl)propanamine oxalate] |  |  |  | percent inhibition at 1000 nM, NE (number in parentheses) ([1]; oxalate): 5%; IC50 ([2]; oxalate): 210 nM
17 | CN(C)CCC(Oc1ccc(C(F)(F)F)cc1)c1cccs1 (stereo not drawn) [Example 18, N,N-Dimethyl-3-[4-(trifluoromethyl)phenoxy]-3-(-22-thienyl)propanamine oxalate] |  | 190 | 15 | 
18 | CN(C)CCC(Oc1ccc(C(F)(F)F)cc1)c1ccsc1 (stereo not drawn) [Example 19, N,N-Dimethyl-3-[4-(trifluoromethyl)phenoxy]-3-(3-thienyl)propanamine oxalate] |  | 125 | 17 | 

Row | SMILES | IC50 [1] [nM] | IC50 [2] [nM] | percent inhibition at 1000 nM, NE (number in parentheses) [1] [%] | also measured
19 | CNCCC(Oc1ccc(C(F)(F)F)cc1)c1cccs1 (stereo not drawn) [Example 20, N-Methyl-3-[4-(trifluoromethyl)phenoxy-3-(2-thienyl)propanamine oxalate] |  | 46 | 52 | 
20 | CN(C)CCC(Oc1ccc(C(F)(F)F)cc1)c1ccco1 (stereo not drawn) [Example 21, N,N-Dimethyl-3-[4-(trifluoromethyl)phenoxy]-3-(2-furanyl)propanamine] |  | 140 | 14 | 
21 | CNCCC(Oc1ccc(C(F)(F)F)cc1)c1ccsc1 (stereo not drawn) [Example 22, N-Methyl-3-[4-(trifluoromethyl)phenoxy]-3-(3-thienyl)propanamine oxalate] |  | 100 | 36 | 
22 | CNCCC(Oc1ccc(C(F)(F)F)cc1)c1ccco1 (stereo not drawn) [Example 23, N-Methyl-3-[4-(trifluoromethyl)phenoxy]-3-(2-furanyl)propanamine oxalate] | 1100 | 54 |  | 
23 | Cc1ccc(OC(CCN(C)C)c2cccs2)cc1 (stereo not drawn) [Example 24, N,N-Dimethyl-3-(4-methylphenoxy)-3-(2-thienyl)propanamine oxalate] | 430 | 125 |  | 
24 | CN(C)CCC(Oc1ccc(Cl)cc1)c1cccs1 (stereo not drawn) [Example 25, N,N-Dimethyl-3-(4-chlorophenoxy)-3-(2-thienyl)propanamine oxalate] | 820 | 170 |  | 
25 | CNCCC(Oc1ccc(C)cc1)c1cccs1 (stereo not drawn) [Example 26, N-Methyl-3-(4-methylphenoxy)-3-(2-thienyl)propanamine oxalate] | 22 | 112 |  | 
26 | CNCCC(Oc1ccc(Cl)cc1)c1cccs1 (stereo not drawn) [Example 27, N-Methyl-3-(4-chlorophenoxy)-3-(2-thienyl)propanamine oxalate] | 59 | 91 |  | 
27 | CNCCC(Oc1ccc(OC)cc1)c1cccs1 (stereo not drawn) [Example 28, N-Methyl-3-(4-methoxyphenoxy)-3-(2-thienyl)propanamine oxalate] | 260 | 50 |  | 
28 | COc1ccc(OC(CCN(C)C)c2cccs2)cc1 (stereo not drawn) [Example 29, N,N-Dimethyl-3-(4-methoxyphenoxy)-3-(2thienyl)propanamine oxalate] |  | 410 | 18 | 
29 | CN(C)CCC(Oc1cccc2ccccc12)c1ccco1 (stereo not drawn) [Example 30, N,N-Dimethyl-3-(1-naphthalenyloxy)-3-(2furanyl)propanamine oxalate] | 30 | 11 |  | 
30 | CNCCC(Oc1cccc2ccccc12)c1ccco1 (stereo not drawn) [Example 31, N-Methyl-3-(1-naphthalenyloxy)-3-(2-furanyl)propanamine oxalate] | 22.7 | 20 |  | 
31 | CN(C)CCC(Oc1cccc2ccccc12)c1nccs1 (stereo not drawn) [Example 32, N,N-Dimethyl-3-(1-naphthalenyloxy)-3-(2thiazolyl)propanamine oxalate] | 510 | 50 |  | 
32 | CN(C)CCC(Oc1cccc2ccccc12)C1CCCCC1 (stereo not drawn) [Example 33, N,N-Dimethyl-3-(1-naphthalenyloxy)-3-(cyclohexyl)propanamine oxalate] |  | 210 | 47 | 
33 | CNCCC(Oc1ccc(C(F)(F)F)cc1)C1CCCCC1 (stereo not drawn) [Example 34, N-Methyl-3-[4-(trifluoromethyl)phenoxy]-3(cyclohexyl)propanamine oxalate] | 285 | 79 |  | 
34 | CN(C)CCC(Oc1ccc(C(F)(F)F)cc1)C1CCCCC1 (stereo not drawn) [Example 35, N,N-Dimethyl-3-[4-(trifluoromethyl)phenoxy]-3-(cyclohexyl)propanamine oxalate] |  | 260 | 21 | 
35 | CN(C)CCC(Oc1cccc2ccccc12)c1cccnc1 (stereo not drawn) [Example 37, N,N-Dimethyl-3-(1-naphthalenyloxy)-3-(3-pyridyl)propanamine oxalate] | 315 | 315 |  | 
